Measurements taken from patent publication US9567345B2, “Pharmaceutically active pyrazolo-triazine derivatives” (LEAD DISCOVERY CENTER GMBH, priority 2012, dated 2017).
Read-outs that look alike come from different tables or passages of the source.

Legend:
CDK7/CycH/Mat1 = CDK7/CycH/Mat1 (Homo sapiens, UniProt P50613); assay: CDK7 Enzymatic Activity Assay (Lance Kinase Activity Assay, FRET); format: biochemical
Method: (§1) This protocol describes how the Lance Kinase Activity Assay was performed to determine IC50 values of compounds of general formula (I) against CDK/Cyclin complexes. The principle behind this enzymatic assay is based upon the phosphorylation of the Ulight-Peptide Substrat. It is detected by using a specific EU-labeled anti-phospho peptide antibody.
(§2) Binding of an inhibitor to the kinase prevents phosphorylation of the Ulight-MBP Substrat, resulting in a loss of FRET.
CDK7 Enzymatic Activity Assay
(§3) The compounds of general formula (I) exemplary summarized in Table 1 were diluted from a 10 mM DMSO stock solution 1:10 in a total volume of 15 μl DMSO. This compound predilution was then serial diluted 1:3 over 8 steps in DMSO and briefly spun down. Each compound solution was now diluted 1:20 in Enzymatic Buffer (HEPES: 50 mM, pH: 7.5; MgCl2: 10 mM; EGTA: 1 mM; DTT: 2 mM; Tween-20: 0.01%), mixed thoroughly and spun down.
(§4) For positive controls, 2 μl of DMSO working solution were mixed with 6 μl CDK7/CycH/Mat1/substrate working solution and 2 μl ATP working solution. Positive and negative controls were calculated from at least 8 different wells. The 384 well plates were mixed in a Teleshaker plate mixer (Beckman Coulter, Brea, Calif., USA) at 2000 rpm for 40 sec, and incubated for 1 h at room temperature before addition of 10 μl LANCE Detection Buffer (1×; EDTA: […]; Eu-Anti-P-MBP: 4 nM) per well. Plates were mixed in a Teleshaker plate mixer (Beckman Coulter, Brea, Calif., USA) at 2000 rpm for 40 sec, followed by incubation with Detection Buffer for 1 h, and reading. […] IC50 values were determined from the sigmoidal dose response curves with the software Quattro Workflow (Quattro GmbH, Munich, Germany).

CDK9/Cyclin T1 = CDK9/Cyclin T1 (Homo sapiens, UniProt P50750); assay: CDK9 Enzymatic Activity Assay (Lance Kinase Activity Assay, FRET); format: biochemical; settings: for IC50: Table 5B, class symbols per IC50 [nM] ranges of b581, read-out: CDK9: Selectivity of CDK7 inhibition over CDK9 inhibition; for Selectivity CDK7 over CDK9: Table 6
CDK9/Cyclin T1, sequence (P50750 whole entry): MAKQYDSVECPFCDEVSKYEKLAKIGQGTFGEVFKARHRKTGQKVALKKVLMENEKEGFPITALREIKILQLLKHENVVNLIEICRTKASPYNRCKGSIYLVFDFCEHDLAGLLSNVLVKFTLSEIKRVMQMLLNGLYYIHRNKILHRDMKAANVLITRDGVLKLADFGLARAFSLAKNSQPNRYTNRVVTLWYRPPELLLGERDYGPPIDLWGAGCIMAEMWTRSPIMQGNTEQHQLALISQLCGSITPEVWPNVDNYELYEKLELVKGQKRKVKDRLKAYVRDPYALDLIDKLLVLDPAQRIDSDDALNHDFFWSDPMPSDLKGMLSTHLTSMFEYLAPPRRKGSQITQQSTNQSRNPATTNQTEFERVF
CDK9/Cyclin T1, sequence (O60563 whole entry partner): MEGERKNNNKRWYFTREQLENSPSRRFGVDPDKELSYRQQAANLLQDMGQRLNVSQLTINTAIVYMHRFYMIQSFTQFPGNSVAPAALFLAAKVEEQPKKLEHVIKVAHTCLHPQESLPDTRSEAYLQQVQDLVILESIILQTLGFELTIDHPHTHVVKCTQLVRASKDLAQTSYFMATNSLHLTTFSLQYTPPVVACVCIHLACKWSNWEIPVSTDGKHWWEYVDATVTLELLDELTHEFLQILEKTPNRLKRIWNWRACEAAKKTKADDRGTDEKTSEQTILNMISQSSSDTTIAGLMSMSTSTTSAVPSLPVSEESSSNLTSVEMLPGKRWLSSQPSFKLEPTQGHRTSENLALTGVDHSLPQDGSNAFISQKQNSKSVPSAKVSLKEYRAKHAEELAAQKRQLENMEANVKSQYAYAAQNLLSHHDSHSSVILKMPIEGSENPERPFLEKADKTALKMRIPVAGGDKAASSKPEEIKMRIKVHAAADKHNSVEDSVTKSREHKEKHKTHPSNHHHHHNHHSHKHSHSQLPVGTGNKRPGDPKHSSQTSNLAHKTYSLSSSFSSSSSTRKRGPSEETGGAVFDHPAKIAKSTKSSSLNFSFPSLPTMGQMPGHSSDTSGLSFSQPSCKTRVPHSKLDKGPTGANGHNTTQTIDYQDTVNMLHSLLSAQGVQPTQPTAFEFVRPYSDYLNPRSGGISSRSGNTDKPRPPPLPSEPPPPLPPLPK
Method: as §1, §2
CDK9 Enzymatic Activity Assay
as §3
as §4, with “CDK9/cyclin T1/substrate” for “CDK7/CycH/Mat1/substrate”

[1] = CDK7/CycH/Mat1, 25 μM ATP final, class ranges, read-out: CDK7: IC50 [nM] for CDK7 inhibition

CDK7/CycH/Mat1, sequence (P50613 whole entry): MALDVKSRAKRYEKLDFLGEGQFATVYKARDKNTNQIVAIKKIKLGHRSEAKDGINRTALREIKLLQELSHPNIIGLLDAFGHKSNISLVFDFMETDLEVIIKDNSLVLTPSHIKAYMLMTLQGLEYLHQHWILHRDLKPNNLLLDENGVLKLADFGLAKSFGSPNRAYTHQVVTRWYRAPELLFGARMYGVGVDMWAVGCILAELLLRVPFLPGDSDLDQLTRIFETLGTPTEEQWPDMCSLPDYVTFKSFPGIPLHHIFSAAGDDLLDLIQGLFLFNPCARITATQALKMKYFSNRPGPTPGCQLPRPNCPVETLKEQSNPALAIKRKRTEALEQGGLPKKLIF

Work on `CC(C)c1cnn2c(NCc3ccccc3-c3nnn(C)n3)nc(N3CCC4(CCCN4)CC3)nc12` [(VIII-19), 8-isopropyl-N-(2-(2-methyl-2H-tetrazol-5-yl)benzyl)-2-(1,8-diazaspiro[4.5]decan-8-yl)pyrazolo[1,5-a][1,3,5]triazin-4-amine] yielded an IC50 (CDK7/CycH/Mat1; [1]) of under 5 nM and an IC50 (CDK9/Cyclin T1) of over 2500 nM.

Molecule `CC(C)c1cnn2c(NCc3ccccc3-n3cccn3)nc(OC3CC4(CNC4)C3)nc12` [(VII-04), N-(2-(1H-pyrazol-1-yl)benzyl)-2-(2-azaspiro[3.3]heptan-6-yloxy)-8-isopropylpyrazolo[1,5-a][1,3,5]triazin-4-amine] has an IC50 (CDK7/CycH/Mat1; [1]) of under 5 nM.

Molecule `CC(C)c1cnn2c(NCc3ccccc3N3CCC3=O)nc(O[C@@H]3CCCNC3)nc12` [(VII-40), (R)-1-(2-(((8-isopropyl-2-(piperidin-3-yloxy)pyrazolo[1,5-a][1,3,5]triazin-4-yl)amino)methyl)phenyl)azetidin-2-one] has an IC50 (CDK7/CycH/Mat1; [1]) of over 25 nM and an IC50 (CDK9/Cyclin T1) of over 2500 nM.

Work on `COc1ccccc1[C@H](C)Nc1nc(OC2CCN(C)CC2)nc2c(C(C)C)cnn12` [(VII-67), (S)-8-isopropyl-N-(1-(2-methoxyphenyl)ethyl)-2-((1-methylpiperidin-4-yl)oxy)pyrazolo[1,5-a][1,3,5]triazin-4-amine] yielded an IC50 (CDK7/CycH/Mat1; [1]) of under 5 nM and an IC50 (CDK9/Cyclin T1) of over 2500 nM.

`CC(C)Oc1ccccc1CNc1nc(OC2CCN(C)CC2)nc2c(C(C)C)cnn12` [(VII-66), N-(2-isopropoxybenzyl)-8-isopropyl-2-((1-methylpiperidin-4-yl)oxy)pyrazolo[1,5-a][1,3,5]triazin-4-amine] showed an IC50 (CDK7/CycH/Mat1; [1]) of under 5 nM and an IC50 (CDK9/Cyclin T1) of over 2500 nM.

`CC(C)c1cnn2c(NCc3c(F)cccc3F)nc(OC3CCN(C)CC3)nc12` [(VII-64), N-(2,6-difluorobenzyl)-8-isopropyl-2-((1-methylpiperidin-4-yl)oxy)pyrazolo[1,5-a][1,3,5]triazin-4-amine] gave an IC50 (CDK7/CycH/Mat1; [1]) of 5 to 10 nM and an IC50 (CDK9/Cyclin T1) of 50 to 500 nM.

`CC(C)c1cnn2c(NCc3ccccc3-n3cccn3)nc(N3CCC34CNC4)nc12` [(VIII-08), N-(2-(1H-pyrazol-1-yl)benzyl)-8-isopropyl-2-(1,6-diazaspiro[3.3]heptan-1-yl)pyrazolo[1,5-a][1,3,5]triazin-4-amine] was tested, and the IC50 (CDK7/CycH/Mat1; [1]) was 5 to 10 nM and the IC50 (CDK9/Cyclin T1) was over 2500 nM.

With `CC(C)c1cnn2c(NCc3ccccc3N3CCOCC3)nc(OC3CCN(C)CC3)nc12` [(VII-60), 8-isopropyl-2-((1-methylpiperidin-4-yl)oxy)-N-(2-morpholinobenzyl)pyrazolo[1,5-a][1,3,5]triazin-4-amine] the IC50 (CDK7/CycH/Mat1; [1]) was over 25 nM and the IC50 (CDK9/Cyclin T1) was over 2500 nM.

`CC(C)c1cnn2c(NCc3ccccc3-n3cccn3)nc(N3CCC4(CCNC4)C3)nc12` (stereo not drawn) [(VIII-03), N-(2-(1H-pyrazol-1-yl)benzyl)-8-isopropyl-2-(2,7-diazaspiro[4.4]nonan-2-yl)pyrazolo[1,5-a][1,3,5]triazin-4-amine] was tested, and the IC50 (CDK7/CycH/Mat1; [1]) was under 5 nM and the IC50 (CDK9/Cyclin T1) was over 2500 nM.

With `CC(C)c1cnn2c(NCc3ccccc3-n3cccn3)nc(N3CCC4(CCN4)CC3)nc12` [(VIII-20), N-(2-(1H-pyrazol-1-yl)benzyl)-8-isopropyl-2-(1,7-diazaspiro[3.5]nonan-7-yl)pyrazolo[1,5-a][1,3,5]triazin-4-amine] the IC50 (CDK7/CycH/Mat1; [1]) was under 5 nM and the IC50 (CDK9/Cyclin T1) was over 2500 nM.

`CC(C)c1cnn2c(NCc3ccccc3-n3ccnc3)nc(OC3CCNCC3)nc12` [(VII-19), N-(2-(1H-imidazol-1-yl)benzyl)-8-isopropyl-2-(piperidin-4-yloxy)pyrazolo[1,5-a][1,3,5]triazin-4-amine] showed an IC50 (CDK7/CycH/Mat1; [1]) of under 5 nM and an IC50 (CDK9/Cyclin T1) of 500 to 2500 nM.

`CC(C)c1cnn2c(NCc3ccccc3-n3cccn3)nc(N3CCC4(CCNCC4)CC3)nc12` [(VIII-26), N-(2-(1H-pyrazol-1-yl)benzyl)-8-isopropyl-2-(3,9-diazaspiro[5.5]undecan-3-yl)pyrazolo[1,5-a][1,3,5]triazin-4-amine] gave an IC50 (CDK7/CycH/Mat1; [1]) of 5 to 10 nM and an IC50 (CDK9/Cyclin T1) of over 2500 nM.

For `CC(C)c1cnn2c(NCc3c(Cl)cccc3Cl)nc(OC3CCN(C)CC3)nc12` [(VII-63), N-(2,6-dichlorobenzyl)-8-isopropyl-2-((1-methylpiperidin-4-yl)oxy)pyrazolo[1,5-a][1,3,5]triazin-4-amine], the IC50 (CDK7/CycH/Mat1; [1]) was 10 to 25 nM and the IC50 (CDK9/Cyclin T1) was over 2500 nM.

`CC(C)c1cnn2c(NCc3ccccc3C(F)(F)F)nc(OC3CCN(C)CC3)nc12` [(VII-058), 8-isopropyl-2-((1-methylpiperidin-4-yl)oxy)-N-(2-(trifluoromethyl)benzyl)pyrazolo[1,5-a][1,3,5]triazin-4-amine] was tested, and the IC50 (CDK7/CycH/Mat1; [1]) was over 25 nM.

`CC(C)c1cnn2c(NCc3ccccc3-c3ccccc3)nc(OC3CCN(C)CC3)nc12` [(VII-57), N-([1,1′-biphenyl]-2-ylmethyl)-8-isopropyl-2-((1-methylpiperidin-4-yl)oxy)pyrazolo[1,5-a][1,3,5]triazin-4-amine] gave an IC50 (CDK7/CycH/Mat1; [1]) of under 5 nM, an IC50 (CDK7/CycH/Mat1; Table 6, read-out: IC50 CDK7) of under 5 nM and an IC50 (CDK9/Cyclin T1) of over 2500 nM. For the same molecule, the “Selectivity CDK7 over CDK9” value (CDK9/Cyclin T1) was 909 fold.

With `CC(C)c1cnn2c(NCc3ccccc3Oc3ccccc3)nc(O[C@@H]3CCCNC3)nc12` [(VII-48), (R)-8-isopropyl-N-(2-phenoxybenzyl)-2-(piperidin-3-yloxy)pyrazolo[1,5-a][1,3,5]triazin-4-amine] the IC50 (CDK7/CycH/Mat1; [1]) was under 5 nM.

In the case of `CC(C)c1cnn2c(NCc3ccccc3-n3cccn3)nc(N3CC4(CCNC4)C3)nc12` [(VIII-02), N-(2-(1H-pyrazol-1-yl)benzyl)-8-isopropyl-2-(2,6-diazaspiro[3.4]octan-2-yl)pyrazolo[1,5-a][1,3,5]triazin-4-amine], the IC50 (CDK7/CycH/Mat1; [1]) is reported as under 5 nM and the IC50 (CDK9/Cyclin T1) is reported as over 2500 nM.

`CC(C)c1cnn2c(NCc3ccccc3-n3cccn3)nc(N3CCC4(CC3)CNC4)nc12` [(VIII-16), N-(2-(1H-pyrazol-1-yl)benzyl)-8-isopropyl-2-(2,7-diazaspiro[3.5]nonan-7-yl)pyrazolo[1,5-a][1,3,5]triazin-4-amine] showed an IC50 (CDK7/CycH/Mat1; [1]) of under 5 nM and an IC50 (CDK9/Cyclin T1) of over 2500 nM.

`CC(C)c1cnn2c(NCc3ccccc3-c3ncco3)nc(O[C@@H]3CCCNC3)nc12` [(VII-49), (R)-8-isopropyl-N-(2-(oxazol-2-yl)benzyl)-2-(piperidin-3-yloxy)pyrazolo[1,5-a][1,3,5]triazin-4-amine] gave an IC50 (CDK7/CycH/Mat1; [1]) of under 5 nM.

With `CCOc1ccccc1CNc1nc(OC2CCN(C)CC2)nc2c(C(C)C)cnn12` [(VII-70), N-(2-ethoxybenzyl)-8-isopropyl-2-((1-methylpiperidin-4-yl)oxy)pyrazolo[1,5-a][1,3,5]triazin-4-amine] the IC50 (CDK7/CycH/Mat1; [1]) was under 5 nM, the IC50 (CDK7/CycH/Mat1; Table 6, read-out: IC50 CDK7) was under 5 nM and the IC50 (CDK9/Cyclin T1) was over 2500 nM. The “Selectivity CDK7 over CDK9” value (CDK9/Cyclin T1) was 992 fold.

In the case of `CC(C)c1cnn2c(NCc3ccccc3-c3ccco3)nc(O[C@@H]3CCCNC3)nc12` [(VII-50), (R)-N-(2-(furan-2-yl)benzyl)-8-isopropyl-2-(piperidin-3-yloxy)pyrazolo[1,5-a][1,3,5]triazin-4-amine], the IC50 (CDK7/CycH/Mat1; [1]) is reported as under 5 nM.

Molecule `CC(C)c1cnn2c(NCc3ccccc3NC(=O)Nc3ccccc3)nc(O[C@@H]3CCCNC3)nc12` [(VII-111), (R)-1-(2-(((8-isopropyl-2-(piperidin-3-yloxy)pyrazolo[1,5-a][1,3,5]triazin-4-yl)amino)methyl)phenyl)-3-phenylurea] has an IC50 (CDK7/CycH/Mat1; [1]) of 10 to 25 nM.

`CC(C)c1cnn2c(NCc3ccccc3)nc(OC3CCN(C)CC3)nc12` [C-I, reference compound] gave an IC50 (CDK7/CycH/Mat1; Table 6, read-out: IC50 CDK7) of under 5 nM.

`CC(C)c1cnn2c(NCc3ccccc3-n3cccn3)nc(OC3CNC3)nc12` [(VII-141), N-(2-(1H-pyrazol-1-yl)benzyl)-2-(azetidin-3-yloxy)-8-isopropylpyrazolo[1,5-a][1,3,5]triazin-4-amine] was tested, and the IC50 (CDK7/CycH/Mat1; [1]) was 10 to 25 nM.

Work on `CC(C)c1cnn2c(NCc3ccccc3Oc3ccccc3)nc(OC3CCN(C)CC3)nc12` [(VII-47), 8-isopropyl-2-((1-methylpiperidin-4-yl)oxy)-N-(2-phenoxybenzyl)pyrazolo[1,5-a][1,3,5]triazin-4-amine] yielded an IC50 (CDK7/CycH/Mat1; [1]) of under 5 nM.

With `CC(C)c1cnn2c(NCc3ccccc3)nc(O[C@@H]3CCCNC3)nc12` [C-II, reference compound] the IC50 (CDK7/CycH/Mat1; Table 6, read-out: IC50 CDK7) was under 5 nM.

For `CC(=O)Nc1ccccc1CNc1nc(O[C@@H]2CCCNC2)nc2c(C(C)C)cnn12` [(VII-51), (R)-N-(2-(((8-isopropyl-2-(piperidin-3-yloxy)pyrazolo[1,5-a][1,3,5]triazin-4-yl)amino)methyl)phenyl)acetamide], the IC50 (CDK7/CycH/Mat1; [1]) was under 5 nM and the IC50 (CDK7/CycH/Mat1; Table 7, read-out: IC50 CDK7) was under 5 nM.
